Earlier results, collected in patent US10293012B2 (priority 2017, dated 2019).

Tested on: HSV1

## heparin [Soluble heparin]
  inhibition of HSV1 infection: competitively inhibit
